Test [1] deals with T1, Nitric oxide synthase, inducible (Homo sapiens, UniProt P35228). Nature of the test: Ability to inhibit conversion of [3H]L-Arg to [3H]L-citrulline catalyzed by inducible NOS (i NOS) from human DLD-1 cells. In kind it is functional, cell-based.
The target in test [2] is T2, Nitric oxide synthase 3 (Homo sapiens, UniProt P29474).
T2 sequence (P29474 whole entry): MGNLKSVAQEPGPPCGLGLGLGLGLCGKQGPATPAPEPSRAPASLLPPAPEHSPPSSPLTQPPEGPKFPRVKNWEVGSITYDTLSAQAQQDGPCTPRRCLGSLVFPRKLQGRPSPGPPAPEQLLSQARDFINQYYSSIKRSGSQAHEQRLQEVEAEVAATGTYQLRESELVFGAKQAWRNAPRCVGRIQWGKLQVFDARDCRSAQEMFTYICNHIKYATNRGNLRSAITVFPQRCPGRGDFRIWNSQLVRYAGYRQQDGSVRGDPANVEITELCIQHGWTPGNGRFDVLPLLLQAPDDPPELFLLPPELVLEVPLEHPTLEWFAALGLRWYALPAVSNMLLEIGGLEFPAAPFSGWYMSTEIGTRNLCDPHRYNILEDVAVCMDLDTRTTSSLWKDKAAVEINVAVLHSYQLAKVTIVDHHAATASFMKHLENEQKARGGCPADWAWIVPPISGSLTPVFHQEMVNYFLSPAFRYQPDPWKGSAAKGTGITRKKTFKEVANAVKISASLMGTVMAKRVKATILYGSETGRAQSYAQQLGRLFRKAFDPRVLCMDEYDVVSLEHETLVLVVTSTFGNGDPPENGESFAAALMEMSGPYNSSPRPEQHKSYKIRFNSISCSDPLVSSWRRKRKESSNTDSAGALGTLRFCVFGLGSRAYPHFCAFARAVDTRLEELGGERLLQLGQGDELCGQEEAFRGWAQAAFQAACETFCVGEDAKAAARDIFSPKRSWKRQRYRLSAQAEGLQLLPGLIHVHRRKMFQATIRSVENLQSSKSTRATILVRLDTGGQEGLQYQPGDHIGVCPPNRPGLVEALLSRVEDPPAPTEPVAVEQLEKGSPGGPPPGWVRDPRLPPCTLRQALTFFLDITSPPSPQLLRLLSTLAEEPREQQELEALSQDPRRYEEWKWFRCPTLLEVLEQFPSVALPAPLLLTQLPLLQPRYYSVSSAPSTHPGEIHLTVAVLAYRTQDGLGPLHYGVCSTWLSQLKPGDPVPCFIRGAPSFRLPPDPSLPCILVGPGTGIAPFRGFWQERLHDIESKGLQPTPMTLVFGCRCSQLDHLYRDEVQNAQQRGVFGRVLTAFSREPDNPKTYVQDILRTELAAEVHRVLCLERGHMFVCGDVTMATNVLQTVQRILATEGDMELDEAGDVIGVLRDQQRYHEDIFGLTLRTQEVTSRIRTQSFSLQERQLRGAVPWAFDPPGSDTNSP
Nature of the test: Ability to inhibit conversion of [3H]L-Arg to [3H]L-citrulline catalyzed by endothelial NOS (e NOS) from HUVEC cells. In kind it is functional, cell-based.

The target of test [3] is T1, Nitric oxide synthase, inducible. Nature of the test: Inhibitory concentration against nitric oxide synthesis in intact DLD-1 cells. In kind it is functional, cell-based.
Test [4] addresses Nitric oxide synthase 1 (Rattus norvegicus, UniProt P29476). Nature of the test: Inhibition of conversion of [3H]L-Arg to [3H]L-citrulline catalyzed by neuronal NOS (n NOS) from rat cerebellum. The test is classed as functional, tissue-based.
Test [5] concerns the target T3, Nitric oxide synthase 3 (Homo sapiens) (UniProt P29474).
T3 sequence (whole entry): T2 sequence (P29474 whole entry)
Nature of the test: Ability (at 100 catalyzed by endothelial NOS (e NOS) from HUVEC cells. In kind it is functional, cell-based. Conditions: concentration not given here.

The species named for test [6] is Rattus norvegicus. Nature of the test: Ability (at 100 catalyzed by neuronal NOS (n NOS) from rat cerebellum. The test is classed as functional.
Test [7] has as its system DLD-1. Nature of the test: (§1) Ability (at 100 catalyzed by inducible NOS (i NOS) from human DLD-1 cells. The test is classed as functional, cell-based.
Test [8] relates to DLD-1. The description is as §1. The test is classed as functional.

This note sets out measurements from ChEMBL document CHEMBL1134020, “3,4-Dihydro-1-isoquinolinamines: a novel class of nitric oxide synthase inhibitors with a range of isoform selectivity and potency” (Bioorg Med Chem Lett, 2001).

Several values for one entry are separate records, joined by “and”; a condition that tells them apart may be missing. Equal entries are not always repeated. A value given as a limit tells only on which side of the number the result lay.

Broadly, the IC50 is the concentration that gives 50% inhibition. Lower therefore signals greater potency in that assay. The inhibition is the change of the read-out against control, counted positive when it falls. A high value points to strong suppression. One may read the Inhibition as the percentage by which the read-out fell short of the control. Higher therefore signals a strong effect.

T1 sequence (P35228 whole entry): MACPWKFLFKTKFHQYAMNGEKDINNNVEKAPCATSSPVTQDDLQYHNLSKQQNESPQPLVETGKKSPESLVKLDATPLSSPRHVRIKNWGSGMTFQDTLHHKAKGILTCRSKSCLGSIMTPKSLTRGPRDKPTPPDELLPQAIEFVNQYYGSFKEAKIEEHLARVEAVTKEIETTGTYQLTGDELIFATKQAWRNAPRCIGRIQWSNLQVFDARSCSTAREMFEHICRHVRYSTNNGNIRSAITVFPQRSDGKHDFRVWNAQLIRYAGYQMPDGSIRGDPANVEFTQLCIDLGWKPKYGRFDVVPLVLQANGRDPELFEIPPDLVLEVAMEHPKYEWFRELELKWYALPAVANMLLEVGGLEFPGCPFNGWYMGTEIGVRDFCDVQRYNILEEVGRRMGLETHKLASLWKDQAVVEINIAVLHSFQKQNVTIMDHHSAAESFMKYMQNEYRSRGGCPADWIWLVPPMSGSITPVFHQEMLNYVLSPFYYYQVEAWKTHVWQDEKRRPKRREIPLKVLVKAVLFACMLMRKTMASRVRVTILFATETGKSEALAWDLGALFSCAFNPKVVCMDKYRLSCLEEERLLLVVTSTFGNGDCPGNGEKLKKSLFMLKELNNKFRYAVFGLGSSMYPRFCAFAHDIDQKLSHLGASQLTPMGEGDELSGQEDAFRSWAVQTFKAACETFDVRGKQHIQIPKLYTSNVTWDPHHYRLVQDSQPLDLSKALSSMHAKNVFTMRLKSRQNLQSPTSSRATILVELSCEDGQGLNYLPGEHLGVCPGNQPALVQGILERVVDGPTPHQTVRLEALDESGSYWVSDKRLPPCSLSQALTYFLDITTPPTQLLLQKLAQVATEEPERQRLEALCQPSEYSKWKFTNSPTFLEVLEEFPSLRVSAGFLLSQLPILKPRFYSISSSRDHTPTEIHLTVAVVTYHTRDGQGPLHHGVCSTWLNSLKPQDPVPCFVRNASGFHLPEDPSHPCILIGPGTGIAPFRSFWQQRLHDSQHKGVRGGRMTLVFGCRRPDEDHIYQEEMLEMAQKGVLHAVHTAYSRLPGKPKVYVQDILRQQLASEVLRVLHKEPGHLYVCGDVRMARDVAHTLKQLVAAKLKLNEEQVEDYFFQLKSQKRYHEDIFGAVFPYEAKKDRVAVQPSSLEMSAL
Sequence of Nitric oxide synthase 1 (P29476 whole entry): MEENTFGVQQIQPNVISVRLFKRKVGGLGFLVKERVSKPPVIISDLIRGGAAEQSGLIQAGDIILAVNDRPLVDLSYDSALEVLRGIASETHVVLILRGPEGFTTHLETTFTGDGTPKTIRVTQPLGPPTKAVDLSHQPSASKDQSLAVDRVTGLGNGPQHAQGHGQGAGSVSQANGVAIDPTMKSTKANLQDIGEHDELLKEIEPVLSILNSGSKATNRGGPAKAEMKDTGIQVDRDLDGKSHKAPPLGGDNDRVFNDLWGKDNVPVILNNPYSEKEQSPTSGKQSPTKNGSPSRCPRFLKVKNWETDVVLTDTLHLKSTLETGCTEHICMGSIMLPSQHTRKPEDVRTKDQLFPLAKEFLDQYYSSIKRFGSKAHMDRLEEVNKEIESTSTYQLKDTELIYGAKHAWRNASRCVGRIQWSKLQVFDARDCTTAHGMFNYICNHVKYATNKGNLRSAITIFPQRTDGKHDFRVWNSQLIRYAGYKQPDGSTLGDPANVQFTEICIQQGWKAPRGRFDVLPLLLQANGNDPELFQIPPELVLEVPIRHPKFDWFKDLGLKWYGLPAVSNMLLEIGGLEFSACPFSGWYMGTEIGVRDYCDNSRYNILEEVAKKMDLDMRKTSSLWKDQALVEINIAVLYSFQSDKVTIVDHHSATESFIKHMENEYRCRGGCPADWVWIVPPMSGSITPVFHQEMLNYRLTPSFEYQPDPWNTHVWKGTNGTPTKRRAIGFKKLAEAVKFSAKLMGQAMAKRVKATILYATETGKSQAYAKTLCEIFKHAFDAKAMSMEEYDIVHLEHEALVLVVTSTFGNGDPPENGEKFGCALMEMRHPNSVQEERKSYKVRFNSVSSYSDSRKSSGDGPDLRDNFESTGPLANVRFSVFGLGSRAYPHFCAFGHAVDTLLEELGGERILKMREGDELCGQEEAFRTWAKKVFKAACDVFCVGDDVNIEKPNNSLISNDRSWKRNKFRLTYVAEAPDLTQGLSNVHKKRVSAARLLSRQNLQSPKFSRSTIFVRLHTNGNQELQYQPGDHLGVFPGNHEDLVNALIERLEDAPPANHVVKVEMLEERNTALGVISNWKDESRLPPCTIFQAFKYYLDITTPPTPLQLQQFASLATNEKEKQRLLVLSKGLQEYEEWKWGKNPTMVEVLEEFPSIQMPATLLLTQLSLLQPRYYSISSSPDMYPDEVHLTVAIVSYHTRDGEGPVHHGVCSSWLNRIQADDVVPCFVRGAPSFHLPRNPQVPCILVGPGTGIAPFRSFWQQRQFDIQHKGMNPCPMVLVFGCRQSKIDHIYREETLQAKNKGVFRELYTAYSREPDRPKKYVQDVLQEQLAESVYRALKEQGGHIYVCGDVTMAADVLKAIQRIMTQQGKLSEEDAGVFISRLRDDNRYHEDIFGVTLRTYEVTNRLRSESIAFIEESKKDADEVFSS

As to `NC1=NC(c2ccccc2)Cc2cccc(F)c21` (centres undefined), the IC50 in test [1] stood at 0.55 µM; in test [2] it was 80 µM; in test [3] it was 130 µM; in test [4], 2 µM.
For `NC1=NC(c2ccccc2)Cc2cccc(Cl)c21` (centres undefined), the inhibition in test [5] is under 25%. This molecule also had an IC50 in test [2] of 6 µM. Moreover, the Inhibition in test [6] amounted to 25%.
For `NC1=NCCc2ccccc21`, the IC50 in test [1] stood at 32 µM; in test [2] it was 2 µM; in test [4] it was 0.4 µM.
Regarding `NC1=NC(c2cccc(F)c2)Cc2ccccc21` (centres undefined), the inhibition in test [5] was under 25%. For the same molecule, the IC50 in test [2] was 9 µM; in test [4], 10 µM.
For `NC1=NCCCc2ccccc21`, the figures for the IC50 in test [2] and in test [4] were 12 µM and 2 µM, respectively. Also, in test [7], the Inhibition was under 25%.
With `COC(=O)[C@@H](N)CCCNC(=N)N[N+](=O)[O-]` [L-NAME], the IC50 came to 14 µM in test [1], 2.7 µM in test [2], 300 µM in test [3] and 0.15 µM in test [4].
For the molecule `N=C(N)NN` [PIMAGEDINE], the IC50 came out at 4.5 µM in test [1], 72 µM in test [2] and 6 µM in test [4].
Consider `NC1=NC(c2ccc(Cl)cc2)Cc2ccccc21` (centres undefined), for which the IC50 in test [2] was 86 µM; in test [4], 30 µM. In test [8], this molecule registered an Inhibition of 46%.
As to `NC1=NC(c2cccs2)Cc2ccccc21` (centres undefined), the IC50 in test [1] turned out to be 2.7 µM; in test [2], 8 µM; in test [4], 2 µM.
For the molecule `CC1Cc2ccccc2C(N)=N1` (centres undefined), the IC50 in test [1] stood at 18 µM; in test [2], 4 µM; in test [4], 3 µM.
As to `NC1=NC(c2ccc(F)cc2)Cc2ccccc21` (centres undefined), the figures for the IC50 in test [1], in test [2] and in test [4] were 5.5 µM, 40 µM and 9 µM, respectively.
`NC1=NC(c2ccccc2)Cc2ccccc21` (centres undefined) came in with an inhibition in test [5] of under 25%. Also, the 50% inhibitory concentration (IC50) turned out to be 9 µM in test [2] and 12 µM in test [4].
On to `C#CC1Cc2ccccc2C(N)=N1` (centres undefined), for which the results for the IC50 in test [1], in test [2] and in test [4] were 2.7 µM, 0.9 µM and 0.4 µM, respectively.
In the case of `NC1=NC(c2ccc(F)cc2)Cc2cccc(F)c21` (centres undefined), the inhibition in test [5] is under 25%. Besides, the figures for the IC50 in test [3] and in test [4] were 350 µM and 16 µM, respectively.
In the case of `NC1=NC(c2ccccc2F)Cc2ccccc21` (centres undefined), the results for the IC50 in test [1], in test [2] and in test [4] were 33 µM, 44 µM and 13 µM, respectively.
Take `NC1=NC(c2ccc(F)cc2)Cc2ccc(F)cc21` (centres undefined): the IC50 in test [2] was 55 µM; in test [4], 44 µM. In test [8], this molecule registered an Inhibition of 43%.
`NC1=NC(c2ccc(F)cc2)Cc2c(F)cccc21` (centres undefined): the half-inhibitory concentration (IC50) worked out at 4.7 µM in test [1], 44 µM in test [2] and 5 µM in test [4].
For the molecule `NC1=NC(c2ccc(F)cc2)Cc2cc(F)ccc21` (centres undefined), the IC50 in test [1] is 9 µM; in test [2] it was 100 µM; in test [4], 20 µM.
With `NC1=NC(C2CC2)Cc2ccccc21` (centres undefined), the IC50 in test [1] was 1.3 µM; in test [2], 3.6 µM; in test [3], 300 µM; in test [4], 1.5 µM.
For the molecule `CC1(C)Cc2ccccc2C(N)=N1`, the inhibition in test [5] is under 25%. Further, in test [4], the IC50 was determined as 10 µM.
Take `NC1=NC(c2ncc[nH]2)Cc2ccccc21` (centres undefined): the inhibition in test [5] is 47% and < 25%. Besides, the Inhibition in test [6] is listed as under 25%.
`NC1=NC(c2ccc(F)cc2)Cc2cccc(Cl)c21` (centres undefined) showed an inhibition in test [5] of 39%. Further, the IC50 in test [2] was found to be 5 µM; in test [3], 350 µM; in test [4], 100 µM.
As for `NC1=NC(c2nccs2)Cc2ccccc21` (centres undefined), the IC50 in test [1] was determined as 4.2 µM; in test [2] it was 19 µM; in test [3], 880 µM; in test [4], 8 µM.
For `NC1=NC(c2ccco2)Cc2ccccc21` (centres undefined), the IC50 in test [1] was determined as 1.2 µM; in test [2] it was 5 µM; in test [4], 0.9 µM.
Take `CC(=N)NCCCC[C@H](N)C(=O)O` [L-NIL]: the IC50 was found to be 0.13 µM in test [1], 2.4 µM in test [2], 470 µM in test [3] and 1.6 µM in test [4].
